From patent publication US11358931B2, “Selective androgen receptor modulators (SARMs) and uses thereof” (priority 2007, dated 2022) come the findings set out here.

Read-outs that look alike come from different tables or passages of the source.

A short description of data set [1]: Pharmacokinetics in ovariectomized female rats (plasma, Day 14). The settings on record: OVX female rats; for AUC: female, po; for AUC / Cmax / Tmax: rat, plasma, PO. In kind it is in vivo, rat. The method, then:
After the 14th dose, approximately 250 μL venous blood was collected via percutaneous jugular puncture from the rats at 0, 0.5, 1, 2, 4 and 6 hours post-dosing. The blood samples were collected into lithium-heparin tubes (Becton Dickinson, Franklin Lakes, N.J.). Plasma fractions were collected for pharmacokinetic analysis. Approximately 24 hours after the last dose, rats were sacrificed by cardiac exsanguination, and blood was collected into serum separator tubes (Becton Dickinson), and the gastrocnemius muscle, plantaris muscle, uterus, clitoral glands, clitoris and inguinal fat pads were isolated, blotted and weighed individually. Uterine weight measurements can be inaccurate in surgically ovariectomized rats due to the potential loss of uterine tissue at the tips of the uterine horns during removal of the ovaries. To minimize this variability, the length of the uterine horns was measured and the uterine weight was reported normalized to uterine length. The left femur and lumbar vertebra L5 were wrapped in saline-soaked gauze and stored at −20° C. for biochemical analysis. The right femur and lumbar vertebrae L3-L4 were collected and stored in 70% ethanol for histomorphometry. The right tibia was collected in formalin for histological analysis. The left tibia was collected on dry ice and stored at −20° C. for measurement of alkaline phosphatase activity.
Pharmacokinetic analysis was performed as described in Example 13.

Data set [2] has as its system human skeletal α-actin promoter activity. The data set can be described thus: Skeletal α-actin promoter assay (C2C12 cells transfected with human AR). The settings on record: for EC50: C2C12, read-out: EC50, activation of skeletal α-actin promoter; for efficacy, % of DHT: C2C12 mouse muscle cells. The format is cell-based. The text has this:
An exemplary assay for measuring AR-mediated gene expression in mouse muscle cells is the human skeletal α-actin assay. A mouse muscle cell line (C2C12, obtained from American Type Cell Culture (ATCC, Rockville, Md.)) can be used in the luciferase reporter assay. An SK α-actin-LUC reporter plasmid is constructed by inserting the skeletal α-actin promoter sequence into a luciferase reporter vector (e.g., by cloning the human skeletal α-actin promoter region from −77 to +202 bp from human liver genomic DNA (Clontech, Palo Alti, Calif.) and inserting the sequence into a pGL3-Basic reporter plasmid (Promega, Madison, Wis.)). The C2C12 cell line can be transiently transfected with a human AR expression plasmid and a luciferase reporter plasmid containing the skeletal α-actin promoter upstream of the luciferase cDNA. The compounds to be tested are added to the cells after transfection and after 24 hours of incubation, the cells are lysed with a detergent-containing buffer and assayed for luciferase activity.
Compound 102 was tested to determine its ability to activate human skeletal α-actin using the skeletal α-actin promoter assay. A mouse muscle cell line (C2C12) was transiently transfected with a human AR expression plasmid and a luciferase reporter plasmid containing the skeletal α-actin promoter upstream of the luciferase cDNA. C2C12 cells (at a concentration of 5×10^5) were seeded in a T25 flask and cultured for 24 hours. The cells were harvested by using trypsin and seeded at 6000 cells/well in 96-well plates. The same day, a non-liposomal formulation, FuGENE 6 reagent (Roche, Indianapolis, Ind.) was used for transfection of the cells. To each well was added 45.5 ng of the skeletal α-actin-LUC reporter plasmid, 4.55 ng pRShAR and 5 ng pRS-BG as carrier DNA. Twenty-four hours after transfection, different concentrations of the solvated compound (10^−10 to 10^−6 M) were added in triplicate to the cells and the cells were incubated for 24 hours. The medium was aspirated and the cells were lysed with a detergent-containing buffer. After addition of Luciferase Assay Buffer to each well, the cells were assayed for luciferase activity using a luminometer to determine the level of transcriptional activation.

The mark [3] stands for this setting: 0.03 mg/kg, Day 14, 0.03 mg/kg, mean ± SD of n = 4, read-out: AUC6.
[4] abbreviates: 0.03 mg/kg, Day 14, 0.03 mg/kg, n = 4, 0 hr conc. substituted for 24 hr, read-out: AUC24.
The mark [5] stands for this setting: 0.3 mg/kg, Day 14, 0.3 mg/kg, mean ± SD of n = 4, read-out: AUC6.
[6] abbreviates: 0.3 mg/kg, Day 14, 0.3 mg/kg, n = 4, 0 hr conc. substituted for 24 hr, read-out: AUC24.
[7] abbreviates: 3 mg/kg, Day 14, 3 mg/kg, mean ± SD of n = 4, read-out: AUC6.
Setting [8] is: 3 mg/kg, Day 14, 3 mg/kg, n = 4, 0 hr conc. substituted for 24 hr, read-out: AUC24.
Setting [9] is: Day 14, 0.03 mg/kg, mean ± SD of n = 4.
Where [10] appears, read: Day 14, 0.3 mg/kg, mean ± SD of n = 4.
Setting [11] is: Day 14, 3 mg/kg, mean ± SD of n = 4.

Regarding `N#Cc1ccc(N2CCC[C@@H]2[C@@H](O)C(F)(F)F)cc1C(F)(F)F` [Compound 102, R,R-4-(2-(1-Hydroxyl-2,2,2-trifluoroethyl)-pyrrolidinyl)-2-trifluoromethyl-benzonitrile], the AUC in data set [1] (setting [3]) is 56 ± 56 ng·h/mL; in data set [1] (setting [4]) it was 119 ± 90 ng·h/mL; in data set [1] (setting [5]), 51 ± 41 ng·h/mL; in data set [1] (setting [6]), 229 ± 289 ng·h/mL; in data set [1] (setting [7]) it was 404 ± 199 ng·h/mL; in data set [1] (setting [8]) it was 880 ± 326 ng·h/mL. Besides, the Cmax (usually the peak of the concentration-time curve) came out at 39 ± 28 ng/mL in data set [1] (setting [9]), 40 ± 34 ng/mL in data set [1] (setting [10]) and 207 ± 87 ng/mL in data set [1] (setting [11]). Moreover, the figures for the Tmax in data set [1] (setting [9]), in data set [1] (setting [10]) and in data set [1] (setting [11]) were 210 ± 114 min, 30 ± 24 min and 30 min, respectively. Besides, the EC50 (usually the midpoint of the concentration-response curve) in data set [2] worked out at 8.7 nM. Further, in data set [2], the “efficacy, % of DHT” value stood at 93%. Further, in data set [2] (concentration 1×10^−7 M), the “increase of skeletal α-actin promoter activity compared to vehicle control” value was “about 17.5 fold”. The “more potent in stimulating muscle cells than LG0893410 and LG0893411” value in data set [2] (ratio of EC50) is 5-10 fold.
Take `O=[N+]([O-])c1ccc(N2CCC[C@@H]2[C@H](O)C(F)(F)F)cc1C(F)(F)F` [LG0893411, S, R-2,2,2-trifluoro-1-[1-(4-nitro-3-trifluoromethyl-phenyl)-pyrrolidin-2-yl]-ethanol]: in data set [2], the EC50 amounted to 85.6 nM and the “efficacy, % of DHT” value stood at 59%.
Consider `C[C@](O)(COc1ccc(C#N)cc1)C(=O)Nc1ccc(C#N)c(C(F)(F)F)c1` [ostarine], for which the “systemic exposure compared with Compound 102” value in data set [1] (equal doses) is listed as “significantly higher exposure”. Also, the AUC in data set [1] (setting [3]) came to 125 ± 22 ng·h/mL; in data set [1] (setting [4]), 552 ± 118 ng·h/mL; in data set [1] (setting [5]) it was 1080 ± 105 ng·h/mL; in data set [1] (setting [6]), 4140 ± 448 ng·h/mL; in data set [1] (setting [7]), 5040 ± 1300 ng·h/mL; in data set [1] (setting [8]) it was 20600 ± 3650 ng·h/mL. The Cmax in data set [1] (setting [9]) worked out at 35 ± 7 ng/mL; in data set [1] (setting [10]) it was 332 ± 40 ng/mL; in data set [1] (setting [11]), 1480 ± 429 ng/mL. Besides, the Tmax – broadly, the time from dosing to the highest level – is 156 ± 144 min in data set [1] (setting [9]), 36 ± 12 min in data set [1] (setting [10]) and 66 ± 36 min in data set [1] (setting [11]).
As to `O=[N+]([O-])c1ccc(N2CCC[C@@H]2[C@@H](O)C(F)(F)F)cc1C(F)(F)F` [LG0893410, R,R-2,2,2-trifluoro-1-[1-(4-nitro-3-trifluoromethyl-phenyl)-pyrrolidin-2-yl]-ethanol], in data set [2], the EC50 is 45.2 nM and the “efficacy, % of DHT” value is 43%.
